From US8604059B2, “Thioxanthene derivatives for the treatment of infectious diseases” (BKG Pharma APS, priority 2009, dated 2013)
Values after ≈ are worked out from the molar mass of the structure shown. Values joined by “and” are separate entries in the source; they are usually repeats but may differ in a detail not shown here. Equal entries are not always repeated.

Legend:
E. coli = experiment: MIC, microdilution broth, multiresistant clinical isolates (Table 1A); assay type: cell-based; conditions: Escherichia coli; ten multiresistant clinical isolates; read-out: Median MIC E. coli
Procedure: (§1) Cell growth was tested using the Minimal Inhibitory Concentration (MIC) susceptibility tests by use of the microdilution broth method in accordance to the NCCLS Guidelines (NCCLS Guidelines, Methods for Dilution Antimicrobial Susceptibility Tests for Bacteria That Grow Aerobically; Approved Standard, Sixth Edition, Volume 23; Number 2). The minimum inhibitory concentration (MIC), is defined as the lowest concentration of drug which inhibits growth of the test organism, in the sense that no visible growth is detected (total inhibition of growth). In example 2, MIC of the compounds used on fungal microorgansims was determined from the IC90 measurements according to NCCLS Guidelines.
(§2) A log phase culture of bacteria was diluted with fresh pre-warmed Mueller-Hinton medium and adjusted to a defined OD at 600 nm in order to give a final concentration of 1×10^4-5 bacteria/ml medium. The bacterial culture was transferred to microtiter-plates and culture was added to each well. […] Trays were incubated at 37° C. by shaking in a robot analyzer, PowerWavex, software KC^4′ Kebo. Lab, Copenhagen, for 16 h and optical densities were measured at 600 nm during the incubation time in order to record growth curves. Wells containing bacterial culture without drug were used as controls to ensure correct inoculum size and bacterial growth during the incubation. Cultures were tested in order to detect contaminations. Each experiment was repeated in triplicate.
(§3) Ten strains in each test group.

E. faecalis = experiment: as above; assay type: cell-based; conditions: Enterococcus faecalis; ten multiresistant clinical isolates; read-out: Median MIC E. faecalis
Procedure: as §1, §2, §3

E. faecium = experiment: as above; assay type: cell-based; conditions: Enterococcus faecium; ten multiresistant clinical isolates; read-out: Median MIC E. faecium
Procedure: as §1, §2, §3

S. aureus = experiment: as above; assay type: cell-based; conditions: Staphylococcus aureus; ten multiresistant clinical isolates; read-out: Median MIC S. aureus
Procedure: as §1, §2, §3

S. epidermidis = experiment: as above; assay type: cell-based; conditions: Staphylococcus epidermidis; ten multiresistant clinical isolates; read-out: Median MIC S. epidermidis
Procedure: as §1, §2, §3

Candida species = experiment: MIC on clinical isolates of Candida species, broth microdilution NCCLS M27-A (Table 3); assay type: cell-based; conditions: Candida species incl. fluconazole resistant; MIC = 90% growth inhibition
Procedure: The antibacterial effect of demethylated/dealkylated phenothiazine or thioxanthene compounds were studied by growth inhibition studies exposing cells to 0-32 μg/ml of drug. Each experiment was repeated in triplicate. MIC values represent the mean values of two separate triplicate experiments.
4 clinical isolates of Candida species (including 3 fluconazole resistant isolates) were subcultured for 24 h on Sabouraud glucose agar before susceptibility testing. Broth microdilution tests were performed according to NCCLS document M27-A (Ref: National Commitee for Clinical Laboratory Standards. (1997). Reference Method for Broth Dilution Antifungal Susceptibility Testing of Yeasts: Approved Standard M27-A. NCCLS, Wayne, Pa.). Microtitre plates were read spectrophotometrically at 530 nm, after mixing the wells by pipetting to resuspend yeast sediments. In this experiment, the MIC was defined as the lowest drug dilution resulting in 90% growth inhibition.

[1] = tested on: S. aureus MRSA clinical isolates; experiment: FIC index, synergy with antibiotics (Table 4a); assay type: cell-based, Staphylococcus aureus; conditions: with Dicloxacillin; 8 MRSA; mean; compound at ¼ of MIC
Procedure: The effect of the compounds was tested according to the methods described in WO2005/105145. In brief, cell growth was tested using the MIC susceptibility tests by use of the microdilution broth method in accordance to the NCCLS Guidelines (NCCLS Guidelines, Methods for Dilution Antimicrobial Susceptibility Tests for Bacteria That Grow Aerobically; Approved Standard, Sixth Edition, Volume 23; Number 2).
The Fractional Inhibitory Concentration (FIC) index were calculated for each compound as described in WO2005/105145. Synergy was defined for Fractional Inhibitory Concentration (FIC) indices less than 0.5
Staphylococcus aureus: 8 (MRSA) in vivo-selected clinical isolates. Resistant to methicillin and beta-lactam antibiotics. Susceptible to teicoplanin chloramphenicol, fosfomycin, netilmicin and vancomycin.

[2] = tested on: Multiresistant clinical isolates E. coli; experiment: Maximal reversal of resistance and synergistic effect (Table 4c); assay type: cell-based; conditions: E. coli multiresistant isolates
Procedure: The maximal obtained reversal of resistance and synergistic effect was tested as previously described.
Strains: Multiresistant clinical isolates E. coli, Ten strains in each group.

[3] = tested on: Enterococcus faecalis BG VSE-92; experiment: Mouse peritonitis/sepsis model, NMRI mice; assay type: in vivo; conditions: 3.1 mg/kg s.c.
Procedure: Mouse peritonitis/sepsis model.
A clinical isolate of Enterococcus faecalis BG VSE-92 from human urine was used. This strain is a multiresistant isolate.
Female NMRI mice (age, approximately 6 to 8 weeks; weight, 30±2 g) were used for the mouse […] peritonitis model (as described below).
Bacterial suspensions were prepared from fresh overnight cultures (made from frozen stock cultures) on 5% blood agar plates as described above. The inoculum for the mouse peritonitis model was prepared immediately before use and was adjusted at 540 nm of giving a density of approximately 10^7 CFU/ml. The size of the inoculum was determined by viability counting on 5% blood agar.
The mice were injected intraperitoneally with 0.5 ml of the enterococcal suspension, resulting in bacteremia within 1 h of inoculation. Antibiotic therapy was initiated 1 h after inoculation. N-dealkyl-Trans-clopenthixol was administered subcutaneously in the neck region in a volume of 0.7 ml per dose. Five mice were in each treatment group. Inoculated untreated control mice were included in all trials. (Method reference: Erlandsdottir et al; Antimicrob Agents Chemother. 2001 April; 45(4):1078-85)
The effects of the various treatment regimens were determined during 5 h of treatment by evaluation of bacterial counts in the peritoneal fluid. The bactericidal efficacies of the treatment regimens in the mouse models were calculated by subtracting the results for each treated mouse from the mean results for control mice at the end of therapy (5 h). A decrease of one thousand times (3 log 10 steps) represents maximum effect in this model and sustains strong bacterial killing effect of the compound tested.

`Clc1ccc2c(c1)/C(=C/CCC1CCNCC1)c1ccccc1S2` [Compound 3] showed an MIC (E. coli) of 3 µg/mL (≈ 8.43 µM), an MIC (E. faecalis) of 0.1 µg/mL (≈ 0.281 µM) and an MIC (E. faecium) of 0.1 µg/mL (≈ 0.281 µM). For the same molecule, the MIC (S. aureus) was 2 µg/mL (≈ 5.62 µM), the MIC (S. epidermidis) was 1 µg/mL (≈ 2.81 µM) and the “MIC Mean (range)” value (Candida species) was 1.0 (0.25-2.0) μ/ml. For the same molecule, the FIC index [1] was 0.25, the “Maximal reversal of resistance: concentration of compound” value [2] was 0.6 µg/mL and the “Decrease of number of bacteria per ml of peritoneal fluid” value ([3]; 5 hours, vs control) was 3 log 10 steps. The “Bacteria survived after 5 hours” value ([3]; p<0.05) was 0.001% and the CFU/ml - peritoneum ([3]; treatment 0 and 1 hour, sampling 5 hours, individual mice) was 2.05E+06 CFU/ml and 2.90E+06 CFU/ml and 4.25E+06 CFU/ml.
